Measured values as given in publication PMC6199744, “Development of Chemical Proteomics for the Folateome and Analysis of the Kinetoplastid Folateome” (ACS Infectious Diseases, 2018).

Test system: L. major lysate proteins
Test: Multitargeted bead mixture chemoproteomics, single concentration competition, proteome-wide
Type: binding
Conditions: for fold change: vehicle control = 1

Nc1nc2[nH]cc(CCc3ccc(C(=O)N[C@@H](CCC(=O)O)C(=O)O)cc3)c2c(=O)[nH]1 [PTX, pemetrexed]
fold change (protein LMJF.15.0040 HY[…], CONSERVED (Possible lysine decarboxylase, putative)): 0.69 | fold change vs vehicle control (protein LMJF.15.0690 HY[…], CONSERVED): 1.2 | fold change (protein LMJF.15.1010 GLUTAMATE DEHYDROGENASE): 1 | fold change (protein LMJF.15.1190 HY[…], CONSERVED (cyclic nucleotide-binding domain containing protein, putative)): 0.98 | fold change vs vehicle control (protein LMJF.16.0520 HY[…], CONSERVED): 0.76 | fold change vs vehicle control (protein LMJF.16.0540 ASPARTATE CARBAMOYLTRANSFERASE, PUTATIVE): 0.92 | fold change relative to vehicle control (protein LMJF.16.0760, TRANSALDOLASE, PUTATIVE): 1.18 | fold change vs vehicle control (protein LMJF.16.0940 DYNEIN LIGHT CHAIN, PUTATIVE): 1.1 | fold change relative to vehicle control (protein LMJF.16.1180, COATOMER DELTA SUBUNIT-LIKE PROTEIN): 1.15 | fold change relative to vehicle control (protein LMJF.16.1320, CYTOCHROME C, PUTATIVE): 1.56 | fold change relative to vehicle control (protein LMJF.16.1420, HY[…], CONSERVED): 1.13 | fold change relative to vehicle control (protein LMJF.17.0081, […] 1-ALPHA): 1.06 | fold change relative to vehicle control (protein LMJF.18.0270, GLYCOGEN SYNTHASE KINASE, PUTATIVE): 0.92 | fold change (protein LMJF.18.0580 P[…]-COA HYDRATASE, PUTATIVE): 0.93 | fold change relative to vehicle control (protein LMJF.18.0680, CITRATE SYNTHASE, PUTATIVE): 1.08 | fold change vs vehicle control (protein LMJF.18.1010 DYNEIN LIGHT CHAIN 2B, CYTOPLASMIC, PUTATIVE): 1.03 | fold change vs vehicle control (protein LMJF.18.1210 PROLYL-TRNA SYNTHETASE, PUTATIVE,BI[…]-TRNA SYNTHETASE, PUTATIVE): 0.97 | fold change vs vehicle control (protein LMJF.18.1370 HEAT SHOCK PROTEIN, PUTATIVE): 1.02 | fold change (protein LMJF.19.0200 ADP,ATP CARRIER PROTEIN 1, MIT[…], PUTATIVE): 1.02 | fold change vs vehicle control (protein LMJF.19.1120 […]-ATP-ASE SUBUNIT, PUTATIVE): 0.91 | fold change vs vehicle control (protein LMJF.19.1160 HY[…], CONSERVED): 0.92 | fold change vs vehicle control (protein LMJF.19.1560 INOSINE-5'-MONOPHOSPHATE DEHYDROGENASE): 0.92 | fold change relative to vehicle control (protein LMJF.19.1620, POTASSIUM VOLTAGE-GATED CHANNEL, PUTATIVE): 1.13 | fold change vs vehicle control (protein LMJF.20.1280 SMALL MYR[…] 4, PUTATIVE): 0.89 | fold change (protein LMJF.21.0810 METHIONYL-TRNA SYNTHETASE, PUTATIVE): 0.98 | fold change (protein LMJF.21.1450 ARGININE N-METHYLTRANSFERASE, TYPE II, PUTATIVE): 0.98 | fold change vs vehicle control (protein LMJF.21.1830 […] 5 SUBUNIT, PUTATIVE,20S […] ALPHA 5, (PUTATIVE)): 0.96 | fold change (protein LMJF.22.0230 AMINO ACID PERMEASE, PUTATIVE): 1.09 | fold change vs vehicle control (protein LMJF.22.0570 […] SUBUNIT 1, PUTATIVE): 1.04 | fold change vs vehicle control (protein LMJF.22.0730 HY[…], CONSERVED): 0.96 | fold change (protein LMJF.22.0770 NADH-CYTOCHROME B5 REDUCTASE, PUTATIVE): 0.82 | fold change relative to vehicle control (protein LMJF.23.0020, HY[…], CONSERVED): 1.35 | fold change relative to vehicle control (protein LMJF.23.0040, PEROXIDOXIN): 0.99 | fold change relative to vehicle control (protein LMJF.23.0080, HY[…], CONSERVED): 0.97 | fold change (protein LMJF.23.0210 ATP-BINDING CASSETTE PROTEIN SUBFAMILY C, MEMBER 1, PUTATIVE): 0.87 | fold change (protein LMJF.23.0370 CYTOCHROME C OXIDASE SUBUNIT 10, PUTATIVE): 0.9 | fold change relative to vehicle control (protein LMJF.23.0540, ACETYL-COA SYNTHETASE, PUTATIVE): 1.05 | fold change vs vehicle control (protein LMJF.23.0560 KINESIN, PUTATIVE): 1.12 | fold change vs vehicle control (protein LMJF.23.1410 HY[…], CONSERVED): 0.97 | fold change relative to vehicle control (protein LMJF.24.0070, HY[…], CONSERVED): 1.03 | fold change (protein LMJF.24.0140 ANKYRIN/TPR REPEAT PROTEIN): 0.86 | fold change (protein LMJF.24.0400 HY[…], CONSERVED (TPR repeat, putative)): 0.87 | fold change relative to vehicle control (protein LMJF.24.1510, IGE-DEPENDENT HISTAMINE-RELEASING FACTOR, PUTATIVE): 1.15 | fold change relative to vehicle control (protein LMJF.24.1630, SUCCINATE DEHYDROGENASE FLAVOPROTEIN, PUTATIVE): 0.98 | fold change relative to vehicle control (protein LMJF.24.2060, TRANSKETOLASE): 0.96 | fold change relative to vehicle control (protein LMJF.25.0010, BETA GALACTOFURANOSYL TRANSFERASE): 1.17 | fold change relative to vehicle control (protein LMJF.25.0910, C[…]): 1.55 | fold change vs vehicle control (protein LMJF.25.1130 CYTOCHROME C OXIDASE VII, PUTATIVE): 0.92 | fold change relative to vehicle control (protein LMJF.25.1180, ATPASE BETA SUBUNIT, PUTATIVE): 1 | fold change vs vehicle control (protein LMJF.25.1610 HY[…], CONSERVED): 0.99 | fold change vs vehicle control (protein LMJF.25.1620 HY[…], CONSERVED): 1.01 | fold change (protein LMJF.25.2340 SERINE/THREONINE-PROTEIN KINASE, PUTATIVE,PROTEIN KINASE, PUTATIVE): 0.74 | fold change relative to vehicle control (protein LMJF.26.0630, HY[…], CONSERVED): 0.9 | fold change vs vehicle control (protein LMJF.26.1240 HEAT SHOCK PROTEIN 70-RELATED PROTEIN): 0.88 | fold change (protein LMJF.26.1710 CYTOCHROME C OXIDASE SUBUNIT V, PUTATIVE): 0.94 | fold change vs vehicle control (protein LMJF.26.2480 CDP-DIACYLGLYCEROL--INOSITOL 3-PHOSPHATIDYLTRANSFERASE, PUTATIVE): 1.06 | fold change vs vehicle control (protein LMJF.26.2560 HY[…], CONSERVED): 0.66 | fold change vs vehicle control (protein LMJF.27.0190 […] 7 SUBUNIT, PUTATIVE): 0.91 | fold change (protein LMJF.27.0650 HY[…], CONSERVED): 0.99 | fold change (protein LMJF.27.0700 HY[…], CONSERVED): 0.86 | fold change vs vehicle control (protein LMJF.27.0760 GTP-binding protein homologue): 1.01 | fold change vs vehicle control (protein LMJF.27.1060 CYSTEINE DESULFURASE, PUTATIVE): 0.96 | fold change vs vehicle control (protein LMJF.27.1110 MIT[…] BINDING PROTEIN 1,GBP21, MRP1): 1.06 | fold change (protein LMJF.27.1250 HY[…], CONSERVED (Serine-threonine kinase receptor-associated protein, putative)): 0.88 | fold change relative to vehicle control (protein LMJF.27.1390, 60S ACIDIC RIBOSOMAL SUBUNIT PROTEIN, PUTATIVE): 1.07 | fold change (protein LMJF.27.1460 […]-ATP-ASE SUBUNIT 3, PUTATIVE): 0.89
